Consider five compounds from patent US7811599B2, “Pharmaceutical combinations comprising a fungicide, a bacteriostatic sulphonamide and an antibacterial compound for topical application” (priority 2001, dated 2010).

What all share (assay type): cell-based
Assay [1] relates to all tested bacteria and fungi. Nature of the assay: MIC values of active ingredients on 9 different microbe strains, summary in words. The settings on record: summary of Table I. The method, then: For fungi: Sabouraud nutrient liquid containing glucose, tripsine digested casein and water.
The experiments are carried out in an ambience free of germs.
(§1) The following compounds were tested: azithromycin, clarithromycin, erythromycin, miconazole, primicin-sulphate. Test organisms: Bacteria: Escherichia coli, Pseudomonas aeruginosa, Serratia marcescens, Staphylococcus aureus, Streprococcus pyogenes. Fungi: Aspergillus flavus, Fusarium oxysporum, Candida albicans, Candida parapsilosus. Nutrient media: Soye bouillon, Sabouraud nutrient liquor. Solvents: methanol a.r. and for primicin-sulphate the mixture of butanol:ethanol:water in the ratio of 1:1:2. Negative control: nutrient medium exempt of test organisms. Positive control: nutrient medium and 10 μL of the inoculum.
Following preparation of the inoculum and incubation the MIC values were determined according to the above.

The next assay concerns Serratia marcescens. As to the kind of experiment: MIC values of active ingredients (in nutrient liquid). The settings on record: Table I. The method, then:
as §1, with “The experiments are carried out in an ambience free of germs. […] The” for “The”, “[…]-sulphate.” for “primicin-sulphate.”, “[…]-sulphate” for “primicin-sulphate”, “inoculum. Following preparation of the inoculum and incubation the MIC values were determined according to the above.” for “inoculum.”

For another assay, the system named is Staphylococcus aureus. Described as above. The settings on record: Table I. The procedure: as §1, with “The experiments are carried out in an ambience free of germs. […] The” for “The”, “[…]-sulphate.” for “primicin-sulphate.”, “[…]-sulphate” for “primicin-sulphate”, “inoculum. Following preparation of the inoculum and incubation the MIC values were determined according to the above.” for “inoculum.”

In a further assay the test system is Pseudomonas aeruginosa. The assay is described as above. The settings on record: Table I. The procedure: as §1, with “The experiments are carried out in an ambience free of germs. […] The” for “The”, “[…]-sulphate.” for “primicin-sulphate.”, “[…]-sulphate” for “primicin-sulphate”, “inoculum. Following preparation of the inoculum and incubation the MIC values were determined according to the above.” for “inoculum.”

In the next assay the test system is Escherichia coli. The assay is described as above. Conditions: Table I. The procedure:
as §1, with “The experiments are carried out in an ambience free of germs. […] The” for “The”, “[…]-sulphate.” for “primicin-sulphate.”, “[…]-sulphate” for “primicin-sulphate”, “inoculum. Following preparation of the inoculum and incubation the MIC values were determined according to the above.” for “inoculum.”

The test system of another assay is Streptococcus pyogenes. Described as above. The settings on record: Table I. The procedure: as §1, with “The experiments are carried out in an ambience free of germs. […] The” for “The”, “[…]-sulphate.” for “primicin-sulphate.”, “[…]-sulphate” for “primicin-sulphate”, “inoculum. Following preparation of the inoculum and incubation the MIC values were determined according to the above.” for “inoculum.”

The next assay concerns Candida parapsilosis. The description is as above. Conditions: Table I; for MIC: Lodderomyces parapsilosis. The method, then: as §1, with “For fungi: Sabouraud nutrient liquid containing glucose, […] digested casein and water. The experiments are carried out in an ambience free of germs. […] The” for “The”, “[…]-sulphate.” for “primicin-sulphate.”, “[…]-sulphate” for “primicin-sulphate”, “inoculum. Following preparation of the inoculum and incubation the MIC values were determined according to the above.” for “inoculum.”

The next assay concerns Candida albicans. Described as above. The settings on record: Table I. The procedure:
as §1, with “For fungi: Sabouraud nutrient liquid containing glucose, […] digested casein and water. The experiments are carried out in an ambience free of germs. […] The” for “The”, “[…]-sulphate.” for “primicin-sulphate.”, “[…]-sulphate” for “primicin-sulphate”, “inoculum. Following preparation of the inoculum and incubation the MIC values were determined according to the above.” for “inoculum.”

For the next assay, the system named is Aspergillus flavus. The assay is described as above. The settings on record: Table I. The method, then: as §1, with “For fungi: Sabouraud nutrient liquid containing glucose, […] digested casein and water. The experiments are carried out in an ambience free of germs. […] The” for “The”, “[…]-sulphate.” for “primicin-sulphate.”, “[…]-sulphate” for “primicin-sulphate”, “inoculum. Following preparation of the inoculum and incubation the MIC values were determined according to the above.” for “inoculum.”

The next assay has as its system Fusarium oxysporum. The assay is described as above. The settings on record: Table I. The procedure:
as §1, with “For fungi: Sabouraud nutrient liquid containing glucose, […] digested casein and water. The experiments are carried out in an ambience free of germs. […] The” for “The”, “[…]-sulphate.” for “primicin-sulphate.”, “[…]-sulphate” for “primicin-sulphate”, “inoculum. Following preparation of the inoculum and incubation the MIC values were determined according to the above.” for “inoculum.”

Values after ≈ are worked out from the molar mass of the structure shown.

Take `CC[C@H]1OC(=O)[C@H](C)[C@@H](O[C@H]2C[C@@](C)(OC)[C@@H](O)[C@H](C)O2)[C@H](C)[C@@H](O[C@@H]2O[C@H](C)C[C@H](N(C)C)[C@H]2O)[C@](C)(O)C[C@@H](C)CN(C)[C@H](C)[C@@H](O)[C@]1(C)O` [azithromycin]: in assay [1], the “activity in the MIC test, in words” value is “effective on all tested bacteria”. Besides, the MIC was determined as 8 µg/mL (≈ 10.7 µM) with Serratia marcescens; 2 µg/mL (≈ 2.67 µM) in the assay on Staphylococcus aureus; 65 µg/mL (≈ 86.8 µM) in the assay with Pseudomonas aeruginosa; 6 µg/mL (≈ 8.01 µM) against Escherichia coli; 3 µg/mL (≈ 4.01 µM) against Streptococcus pyogenes; 500 µg/mL (≈ 668 µM) against Candida parapsilosis. Also, the MIC against Candida albicans, in the assay with Aspergillus flavus and against Fusarium oxysporum was more than 500 µg/mL throughout.
`CC[C@H]1OC(=O)[C@H](C)[C@@H](O[C@H]2C[C@@](C)(OC)[C@@H](O)[C@H](C)O2)[C@H](C)[C@@H](O[C@@H]2O[C@H](C)C[C@H](N(C)C)[C@H]2O)[C@](C)(OC)C[C@@H](C)C(=O)[C@H](C)[C@@H](O)[C@]1(C)O` [clarithromycin]: the minimal inhibitory concentration (MIC) with Serratia marcescens was 100 µg/mL (≈ 134 µM); against Staphylococcus aureus, 0.2 µg/mL (≈ 0.267 µM); against Pseudomonas aeruginosa, 80 µg/mL (≈ 107 µM); against Escherichia coli it was 95 µg/mL (≈ 127 µM); with Streptococcus pyogenes it was 1 µg/mL (≈ 1.34 µM); in the assay on Candida parapsilosis, more than 100 µg/mL. Also, the minimum inhibitory concentration (MIC) in the assay on Candida albicans, in the assay with Aspergillus flavus and with Fusarium oxysporum was more than 100 µg/mL throughout.
As to `CC[C@H]1OC(=O)[C@H](C)[C@@H](O[C@H]2C[C@@](C)(OC)[C@@H](O)[C@H](C)O2)[C@H](C)[C@@H](O[C@@H]2O[C@H](C)C[C@H](N(C)C)[C@H]2O)[C@](C)(O)C[C@@H](C)C(=O)[C@H](C)[C@@H](O)[C@]1(C)O` [erythromycin], the minimal inhibitory concentration (MIC) with Serratia marcescens came out at 300 µg/mL (≈ 409 µM); with Staphylococcus aureus it was 1 µg/mL (≈ 1.36 µM); with Pseudomonas aeruginosa it was 90 µg/mL (≈ 123 µM); against Escherichia coli, 100 µg/mL (≈ 136 µM); against Streptococcus pyogenes, 3 µg/mL (≈ 4.09 µM); in the assay with Candida parapsilosis, 500 µg/mL (≈ 681 µM). The MIC with Candida albicans, against Aspergillus flavus and in the assay on Fusarium oxysporum was more than 500 µg/mL throughout.
Turning to `Clc1ccc(COC(Cn2ccnc2)c2ccc(Cl)cc2Cl)c(Cl)c1` (stereo not drawn) [miconazole], the “activity in the MIC test, in words” value in [1] is “inhibits all tested fungi and cocci”. The minimum inhibitory concentration (MIC) was more than 500 µg/mL in the assay on Serratia marcescens; 3 µg/mL (≈ 7.21 µM) in the assay with Staphylococcus aureus; more than 500 µg/mL against Pseudomonas aeruginosa; more than 500 µg/mL in the assay with Escherichia coli; 0.5 µg/mL (≈ 1.2 µM) in the assay on Streptococcus pyogenes; 0.2 µg/mL (≈ 0.481 µM) with Candida parapsilosis. Also, the MIC was 0.5 µg/mL (≈ 1.2 µM) against Candida albicans, 2 µg/mL (≈ 4.81 µM) against Aspergillus flavus and more than 8 µg/mL with Fusarium oxysporum.
Consider primycin, for which the “activity in the MIC test, in words” value in [1] is “acceptably active against Candida type fungi but not against all tested bacteria”. Moreover, the MIC values was 100< μg/ml against Serratia marcescens; 0.2 µg/mL with Staphylococcus aureus; 100< μg/ml with Pseudomonas aeruginosa; 100< μg/ml against Escherichia coli; 0.5 µg/mL against Streptococcus pyogenes; 5.0 µg/mL in the assay with Candida parapsilosis. Further, the MIC values against Candida albicans was 18 µg/mL; in the assay on Aspergillus flavus it was 100< μg/ml; against Fusarium oxysporum, 100< μg/ml.

As usually defined, the MIC is the least concentration at which growth counts as inhibited. Read a high MIC as weaker potency.
